For 73 compounds, TGI and GI50 results are on record in PubChem BioAssay (NCI).

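Grown in 96-well plates, cells were treated for 48 hours with each compound at five concentrations. Insufficient inhibition: endpoint recorded as highest concentration tested. GI50: concentration for 50% inhibition of growth. TGI is the concentration that stops growth completely.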 Where a SMILES comes first, the peptide text is derived from it. Bridges are numbered along the chain shown (N, C = ends). [ ]: non-standard residue; d: D form. The star is where a group is joined. Cbz = O=C(OCc1ccccc1)*; Aib = CC(C)(N)C(=O)O; OBn = c1ccc(CO*)cc1; βAla = NCCC(=O)O Bounds are passed on as bounds.

Common to all, as to assay: NCI anticancer screen, dose series, 48 h
For test [1], the system named is SF-539 CNS.
In test [2] the test system is XF 498 CNS.
Test [3] relates to DMS 114 small cell lung.
Test [4] has as its system DMS 273 small cell lung.
Test [5] relates to SNB-78 CNS.
The test system of test [6] is LXFL 529 NSCLC.
The subject of test [7] is KM20L2 colon.
In test [8] the test system is M19-MEL melanoma.
For test [9], the system named is DLD-1 colon.
Test [10] relates to HOP-18 NSCLC.
For test [11], the system named is RXF-631 renal.

`CC/C(=N/O)c1ccc(Br)s1` registered a TGI in test [1] of over 100 µM.
Still for that read-out and setting: with `CSc1ccc(C2C(Cl)C(=O)N2NC(=O)c2c(Cl)c(Cl)c(Cl)c(Cl)c2-c2nc3ccccc3[nH]2)cc1` (centres undefined) the figure was 53.4 µM.
Still for that read-out and setting: under `N#Cc1nc(COCCOCc2ccccc2)oc1N` stands over 100 µM; under `O=P(O)(O)CN1CCN(CP(=O)(O)O)CCN(CP(=O)(O)O)CCN(CP(=O)(O)O)CC1`, over 100 µM; under `N#CC1=C(N2CCCC2)NC(=O)CC1=O`, over 100 µM.
Regarding `CC(=O)O[C@@H]1C=C(C)[C@H](CBr)O[C@@]2(C)CC[C@H](Br)C(C)(C)[C@H]12`, in test [1], the TGI was over 100 µM.
For the compound `c1ccc2c(c1)nc1n2CNCC1`, the TGI in test [1] is over 100 µM.
Same read-out and setting: with `O=C1NNC(=O)C2C3c4ccccc4C(c4ccccc43)C12` (centres undefined) the figure was over 100 µM.
Turning to `O=C(c1ccccc1)c1c2ccccn2c2cccc[n+]12`, the TGI in test [1] was over 100 µM.
In the case of `O=C1c2ccccc2S[C@@H](O)[C@@H]2CCCN12`, the TGI in test [2], in test [3], in test [1], in [4], in test [5] and in test [6] was over 100 µM each time. In addition, the TGI in test [7], in test [8], in test [9] and in test [10] was over 100 µM each time.
`COc1cc(C2c3cc4c(cc3[C@H](OCCN(C)C)[C@@H]3COC(=O)C23)OCO4)cc(OC)c1O` (some centres undefined): the TGI was 1.88 µM in test [2]; 0.449 µM in [1]; 1.07 µM in test [11]; 1.31 µM in test [4]; over 93.2 µM in test [5]; 28 µM in test [6]. In addition, the TGI in [7] was 2.98 µM; in test [8] it was 4.79 µM; in test [9], 3.96 µM; in [10], over 100 µM.
Consider `O=C1CCC(c2ccccc2)C(O)(C(=O)O)C1` (centres undefined), for which the TGI in test [1], in test [11], in test [4], in test [5], in test [6] and in [7] was over 100 µM in each case. In addition, the TGI in test [8], in test [9] and in test [10] was over 100 µM each time.
For `Cc1cc(=O)[nH]c(NNC(C#N)c2ccc(O)cc2)n1` (centres undefined), the TGI in [3], in [1], in [4], in [5], in test [6] and in test [7] was over 100 µM each time. The TGI in test [8], in test [9] and in [10] was over 100 µM each time.
As to `Cc1nc(N)c(N2CCNCC2)c(=O)[nH]1`, the TGI in test [1] is over 100 µM.
On to `CC(=O)c1cccc2c1CC1(C2)Cc2ccc3c(c2C1=O)CCC3` (centres undefined), for which the TGI in test [1] is over 100 µM.
On to `CCOC(=O)C(Cl)(NC(=O)c1ccc(F)cc1)C(F)(F)F` (centres undefined), for which the TGI in test [1] is over 100 µM.
On to `N#CCCN(c1ccc(/C=C2\N=C(c3ccc(Cl)cc3)OC2=O)cc1)S(=O)(=O)c1ccccc1`, for which the TGI in test [2], in test [3], in test [1], in [11], in test [4] and in test [6] was over 100 µM throughout. Moreover, the TGI in test [7], in [8] and in test [9] was over 100 µM in each case.
Compound `COc1ccc2c(c1)OCc1c-2oc2ccccc2c1=O` came in with a TGI in test [1] of over 100 µM.
Same read-out and setting: under `NC(N)=N/N=C/c1c(Cl)nc2sccn12` stands 37.8 µM; under `COc1ccccc1N1C(=O)/C(=C\c2cccc(Oc3ccccc3)c2)SC1c1ccccc1` (centres undefined), over 100 µM; under `NS(=O)(=O)c1nnc(NC(=O)c2ccccc2)s1`, over 100 µM.
`Clc1ccc2c(NCCCCN=Cc3ccccc3)ccnc2c1` displayed a TGI in test [1] of 24.7 µM.
Still for that read-out and setting: with `CC1CN=C(Nc2ccc(S(N)(=O)=O)cc2)S1` (centres undefined) the figure was over 100 µM; with `CCSc1nc(N2CCOCC2)c2cn[nH]c2n1`, over 100 µM.
With `CN1CCC(OC(=O)Oc2ccccc2)(c2ccccc2)CC1`, the TGI in [1] stood at 26.5 µM.
On the same count and under the same terms, under `C=C1CC[C@@]2(OC1)OC1C[C@H]3[C@@H]4CC=C5C[C@@H](O)CC(OC6OCC(OC(=O)[C@@H](O)[C@@H](C)CC)C(OC(C)=O)C6OC6OC(C)C(O)C(O)C6O)[C@]5(C)[C@H]4CC[C@]3(C)C1[C@@H]2C` (some centres undefined) stands 5.21 µM; under `COc1ccc(OC)c2c1C(=O)C(Cl)=C(N1CCN(CCOCCO)CC1)C2=O`, 32.8 µM.
On the same count and under the same terms, with `CC(=O)NNc1nc(C)c(C(/C=C/c2cccc([N+](=O)[O-])c2)=N/NC(=S)NN)s1` the figure was over 100 µM; with `CCOC(=O)Cn1sc2ncc([N+](=O)[O-])cc2c1=O`, 38.5 µM.
Consider `CC(=O)NC(CCCN)C(=O)NCc1ccccc1` (centres undefined), for which the TGI in [2], in test [3], in [1], in test [4], in [5] and in test [6] was over 100 µM each time. Besides, the TGI in test [7], in test [8] and in [9] was over 100 µM each time.
As to `CC(C)NC(=O)OCc1c(COC(=O)NC(C)C)c(-c2ccc[n+](COC(=O)CC(C)(C)C)c2)n2c1CCC2`, the TGI in test [1] is over 100 µM.
In test [1], `COc1ccc(-c2c(C(C)=O)c(-c3ccccc3)n(C3OC(COC(C)=O)C(OC(C)=O)C(OC(C)=O)C3OC(C)=O)c(=S)c2C#N)cc1` (centres undefined) displayed a TGI of over 100 µM.
On to `S=C1Cc2c([nH]c3ccccc23)-c2ccccc2N1`, for which, in [1], the TGI was over 100 µM.
On the same count and under the same terms, with `Cc1[nH]c(=O)[nH]c(=S)c1C(=O)NC(C)(CO)CO` the figure was over 100 µM.
Compound `CCCCCCCCCCCCCCCCCc1cccc(OCOCCOC)c1CO` showed a TGI in test [1] of over 100 µM.
As to `Cc1ccc2nc3ccccc3c(C3C4C(=O)N(c5ccc(Br)cc5Cl)C(=O)C4ON3C(C(N)=O)c3ccccc3)c2c1` (centres undefined), the TGI in test [1] was over 25 µM.
In the case of `COc1cc(C2c3cc4c(cc3[C@@H](Nc3ccccc3)C3CO[C@@H](OC)[C@H]23)OCO4)cc(OC)c1O` (some centres undefined), in test [1], the TGI is 12.1 µM.
Turning to `Cc1ccc(S(=O)(=O)OC2C3OC(C)(C)OC3OC2C(c2cc(O)c3c(c2O)C(=O)c2ccccc2C3=O)c2cc(O)c3c(c2O)C(=O)c2ccccc2C3=O)cc1` (centres undefined), in test [1], the TGI was over 10 µM.
Take `O=C(CCc1ccc(O)cc1)NCCc1ccc(O)cc1`: the TGI in test [1] is over 100 µM.
Take `O=C(CSc1nnc(Cc2ccccc2)o1)Nc1cccc([N+](=O)[O-])c1`: the TGI in test [3], in [1], in test [4], in test [5], in test [6] and in test [7] was over 100 µM throughout. In addition, the TGI in test [8], in [9] and in test [10] was over 100 µM in each case.
On to `COC12C=CC(CC1)C(C)(C)C2=O` (centres undefined), for which the TGI in [1] was over 100 µM.
With `Nc1nc(Cl)cc(NCC2(CO)CC(OCc3ccccc3)C2)n1` (centres undefined), the TGI in test [1] is over 100 µM.
`CCOc1cc(NC(C)=O)ccc1C(=O)NN1C(=O)C(Oc2ccccc2)C1c1ccc(O)c(OC)c1` (centres undefined) came in with a TGI in [1] of over 100 µM.
Regarding `C=C(C)[C@@H](C(=O)OC)N1C(=O)c2ccccc2C1=O`, the TGI in [1] is over 100 µM.
Consider `Clc1cccc(Cl)c1C1SCC2=Nc3ccccc3CN21` (centres undefined), for which the TGI in test [1] is 32.9 µM.
Same read-out and setting: with `CCCCn1c(C)c(C(=O)OCC)c2cc(OCc3ccc(C(=O)Nn4c(C)ccc4C)cc3)c(Br)cc21` the figure was over 100 µM; with `Cc1cccc2c(N)c3cccc(C(=O)NCCCNCCN)c3nc12`, 9.93 µM.
`CCN(CC)Cc1cc(Nc2ccnc3ccc4c(nnn4C)c23)ccc1O` showed a TGI in [1] of 18.4 µM.
Consider `CCOC(=O)[C@H]1Nc2ccc(C)cc2C2c3ccccc3CC21` (some centres undefined), for which the TGI in [3], in test [1], in test [4], in test [5], in test [6] and in [7] was over 100 µM throughout. Further, the TGI in test [8], in test [9] and in [10] was over 100 µM each time.
In turn, `CO/N=C(\C(=O)Nc1cncs1)c1csc(NC(c2ccccc2)(c2ccccc2)c2ccccc2)n1` returned a TGI in test [1] of over 10 µM.
As to `COc1cccc(C2c3cc4c(cc3OC(N3CCCC3)C2C)OCO4)c1` (centres undefined), the TGI in test [1] worked out at 24.9 µM.
Still for that read-out and setting: with `O=C1NC(Nc2cccc(Cl)c2)=N/C1=C\c1ccc(Cl)c(Cl)c1` the figure was 22.2 µM; with `CCOC(=O)c1c(SC(=O)/C=C/c2ccccc2)n(-c2ccccc2)c(=S)n(-c2ccccc2)c1=O`, over 100 µM; with `Cc1cc(O)c(/C=N/C(=S)NCCc2ccccc2)c(=O)o1`, over 100 µM.
`Nc1ccc(C(=O)Nn2c(-c3ccccc3)nc3ccccc3c2=O)cc1`: the TGI in [1] was over 100 µM.
As for `COC(=O)c1ccc2c(c1)CC1(C2)Cc2cc3c(cc2C1=O)CCC3` (centres undefined), the TGI in test [1] is over 100 µM.
As to `CC(=O)OCC1OC(N2C(c3ccccc3)=CC(c3ccccc3)C(C#N)=C2S)C(OC(C)=O)C(OC(C)=O)C1OC(C)=O` (centres undefined), the TGI in test [1] turned out to be 16.2 µM.
In test [1], `CC(=O)NCc1nc(C#N)c(N)o1` had a TGI of over 100 µM.
Still for that read-out and setting: under `O=C(CC(=O)N(C(=O)c1ccccc1)c1ccc(Cl)cc1)N/N=C\c1cc(N=Nc2ccccc2Cl)ccc1O` stands over 100 µM.
Take `N#[O+].O=S(=O)([O-])[O-].[NH2-].[NH2-].[NH2-].[NH2-].[NH2-].[Ru+5]`: the TGI in test [1], in test [5], in test [6], in [7] and in [9] was over 100 µM in each case. Besides, in test [6], the GI50 is over 100 µM.
Regarding `CCOC(=O)N/N=C(/N)Cc1ccccc1`, the TGI in [1] is over 100 µM.
Take `CCOC(=O)C(=C(SC)SC)c1nn2c(=O)cc(C)nc2s1`: the TGI in test [1] stood at 32.7 µM.
Still for that read-out and setting: with `C=CCN1C(=O)/C(=C/c2ccccc2)NC1=S` the figure was over 100 µM; with `CC[C@@H]1/C=C/C=C/C[C@H](C)[C@@H](O)[C@](C)(O)C(=O)[C@H](C)[C@@H](O)[C@H](C)C(=O)[C@H](C)[C@@H](O)[C@H](C)/C=C/C(=O)O[C@H]2[C@@H](C)[C@@H](CC1)O[C@]1(O[C@H](CC(C)O)[C@H](C)CC1=O)[C@@H]2C` (some centres undefined), 8.75 µM; with `O=[N+]([O-])C(C(Cl)=C(Cl)Cl)=C(N1CCOCC1)N1CCOCC1`, over 100 µM.
Still for that read-out and setting: under `O=C(CNc1ccc(Cl)cc1)Nn1c(-c2ccccc2)nc2ccccc2c1=O` stands 14.9 µM; under `Oc1cc(O)c2c(c1)O[C@H](c1cc(O)c(O)c(O)c1)[C@H](O)C2`, 48.7 µM; under `CCCN=C(NC(=O)c1ccc(Cl)cc1)SC`, over 100 µM.
`C/C(=N\NC(=S)N1CC2CCC(CC2)C1)c1ccncn1` displayed a TGI in test [1] of 2.02 µM.
On to `O=C1SCC(O)=C1/C=N/Nc1nc2ccccc2o1`, for which the TGI in [1] was found to be 40.8 µM.
Same read-out and setting: under `O=P(c1ccccc1)(c1ccccc1)C(NCc1ccccc1)c1ccc(F)cc1` (centres undefined) stands 36.2 µM.
The same measure, in the same setting: with `CC1(C)NC(=O)C(NC(=O)C(CC(=O)OCc2ccccc2)NC(=O)OCc2ccccc2)CCCCNC(=O)CCNC1=O` (centres undefined) (Cbz-D(OBn)K[Aib][βAla]; lactam 2-C; configuration not given here) the figure was over 100 µM; with `O=c1[nH]nc(-c2cccc(Br)c2)[nH]1`, over 100 µM.
